Measurements from patent publication US20260356819A1, “OXOISOINDOLINYL-SUBSTITUTED […] DERIVATIVE AND USE THEREOF” (GLUETACS THERAPEUTICS (SHANGHAI) CO., LTD., priority 2023, published 2026).

Experiments:
Assay type in all cases: cell-based
Details in all cases: compounds at 50 nM and 500 nM
IKZF2 = target: T1, IKZF2 (Homo sapiens, UniProt Q96SW2+Q9UKS7); test: Western blot degradation of IKZF2 in hPBMCs (24 h)
T1 construct: The supernatant was aspirated as the extracted total cell protein; endogenous in cells; host or cells: human peripheral blood mononuclear cells (hPBMCs)
Summary of the method: (§1)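 Degradation in primary human PBMCs after 24 h compound exposure at 50 and 500 nM. Western blot band intensities, normalised to an internal control protein, expressed as % protein remaining relative to DMSO.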

WEE1 = target: T2, WEE1 (Homo sapiens, UniProt P30291+Q96SW2); test: Western blot degradation of WEE1 in hPBMCs (24 h)
T2 construct: The supernatant was aspirated as the extracted total cell protein; endogenous in cells; host or cells: human peripheral blood mononuclear cells (hPBMCs)
Summary of the method: as §1

IKZF1 = target: T3, IKZF1 (Homo sapiens, UniProt Q13422+Q96SW2); test: Western blot degradation of IKZF1 in hPBMCs (24 h)
T3 construct: The supernatant was aspirated as the extracted total cell protein; endogenous in cells; host or cells: human peripheral blood mononuclear cells (hPBMCs)
Summary of the method: as §1

IKZF3 = target: T4, IKZF3 (Homo sapiens, UniProt Q96SW2+Q9UKT9); test: Western blot degradation of IKZF3 in hPBMCs (24 h)
T4 construct: The supernatant was aspirated as the extracted total cell protein; endogenous in cells; host or cells: human peripheral blood mononuclear cells (hPBMCs)
Summary of the method: as §1

CK1α = target: T5, CK1α (Homo sapiens, UniProt P48729+Q96SW2); test: Western blot degradation of CK1α in hPBMCs (24 h)
T5 construct: The supernatant was aspirated as the extracted total cell protein; endogenous in cells; host or cells: human peripheral blood mononuclear cells (hPBMCs)
Summary of the method: as §1

GSPT1 = target: T6, GSPT1 (Homo sapiens, UniProt P15170+Q96SW2); test: Western blot degradation of GSPT1 in hPBMCs (24 h)
T6 construct: The supernatant was aspirated as the extracted total cell protein; endogenous in cells; host or cells: human peripheral blood mononuclear cells (hPBMCs)
Summary of the method: as §1

T3 sequence (Q13422 whole entry): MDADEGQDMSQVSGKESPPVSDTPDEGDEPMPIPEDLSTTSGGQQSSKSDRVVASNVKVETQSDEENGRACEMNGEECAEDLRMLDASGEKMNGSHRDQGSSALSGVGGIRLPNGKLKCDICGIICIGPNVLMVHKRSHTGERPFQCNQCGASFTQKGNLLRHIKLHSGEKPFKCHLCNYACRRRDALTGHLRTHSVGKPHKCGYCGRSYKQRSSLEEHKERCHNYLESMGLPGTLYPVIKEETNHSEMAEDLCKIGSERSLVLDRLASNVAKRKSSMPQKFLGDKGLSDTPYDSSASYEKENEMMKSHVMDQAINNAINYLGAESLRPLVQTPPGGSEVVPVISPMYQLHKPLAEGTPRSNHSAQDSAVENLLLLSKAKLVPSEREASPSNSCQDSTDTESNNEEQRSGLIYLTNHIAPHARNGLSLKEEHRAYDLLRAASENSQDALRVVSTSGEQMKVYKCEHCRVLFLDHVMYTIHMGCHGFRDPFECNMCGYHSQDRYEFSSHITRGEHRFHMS
T3 sequence (Q96SW2 whole entry): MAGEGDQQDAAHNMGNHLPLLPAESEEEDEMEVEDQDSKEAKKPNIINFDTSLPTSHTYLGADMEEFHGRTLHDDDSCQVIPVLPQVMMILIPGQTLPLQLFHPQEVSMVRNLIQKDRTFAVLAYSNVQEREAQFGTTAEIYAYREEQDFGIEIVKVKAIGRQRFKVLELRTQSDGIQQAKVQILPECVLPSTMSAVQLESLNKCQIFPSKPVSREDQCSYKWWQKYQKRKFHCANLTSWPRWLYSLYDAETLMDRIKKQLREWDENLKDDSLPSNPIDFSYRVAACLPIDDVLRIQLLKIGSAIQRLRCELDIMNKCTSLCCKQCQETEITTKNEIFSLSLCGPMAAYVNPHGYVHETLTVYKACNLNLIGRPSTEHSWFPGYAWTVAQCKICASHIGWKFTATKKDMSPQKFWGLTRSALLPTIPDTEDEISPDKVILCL
T3 sequence (Q16531 whole entry partner): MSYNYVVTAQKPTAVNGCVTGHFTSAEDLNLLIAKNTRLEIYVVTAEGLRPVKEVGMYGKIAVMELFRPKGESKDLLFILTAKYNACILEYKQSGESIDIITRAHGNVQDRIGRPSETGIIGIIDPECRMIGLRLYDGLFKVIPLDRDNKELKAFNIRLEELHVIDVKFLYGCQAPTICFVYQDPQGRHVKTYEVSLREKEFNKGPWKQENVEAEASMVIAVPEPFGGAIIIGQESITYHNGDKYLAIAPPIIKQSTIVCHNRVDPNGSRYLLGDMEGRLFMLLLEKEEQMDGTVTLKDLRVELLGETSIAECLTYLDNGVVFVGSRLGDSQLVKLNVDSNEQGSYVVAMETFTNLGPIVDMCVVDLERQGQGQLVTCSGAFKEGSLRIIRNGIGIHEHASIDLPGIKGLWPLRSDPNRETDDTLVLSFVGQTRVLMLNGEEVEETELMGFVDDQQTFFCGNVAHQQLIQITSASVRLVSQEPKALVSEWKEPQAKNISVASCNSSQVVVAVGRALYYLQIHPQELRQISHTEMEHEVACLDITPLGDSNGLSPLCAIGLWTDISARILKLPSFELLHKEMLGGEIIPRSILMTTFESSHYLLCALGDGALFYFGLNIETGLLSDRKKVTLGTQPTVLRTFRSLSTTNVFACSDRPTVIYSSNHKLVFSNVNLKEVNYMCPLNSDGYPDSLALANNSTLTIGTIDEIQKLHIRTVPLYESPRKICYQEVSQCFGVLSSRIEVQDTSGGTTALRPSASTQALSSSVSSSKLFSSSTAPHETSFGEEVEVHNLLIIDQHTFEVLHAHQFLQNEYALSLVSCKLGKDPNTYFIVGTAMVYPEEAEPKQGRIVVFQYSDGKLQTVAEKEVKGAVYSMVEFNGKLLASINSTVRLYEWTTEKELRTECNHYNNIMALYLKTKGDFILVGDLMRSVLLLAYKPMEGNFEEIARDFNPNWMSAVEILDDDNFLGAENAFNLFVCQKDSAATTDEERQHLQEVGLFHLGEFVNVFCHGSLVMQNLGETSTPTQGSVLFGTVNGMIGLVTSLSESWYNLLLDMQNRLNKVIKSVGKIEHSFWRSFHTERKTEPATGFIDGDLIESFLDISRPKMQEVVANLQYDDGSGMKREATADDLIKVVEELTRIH
T6 sequence (P15170 whole entry): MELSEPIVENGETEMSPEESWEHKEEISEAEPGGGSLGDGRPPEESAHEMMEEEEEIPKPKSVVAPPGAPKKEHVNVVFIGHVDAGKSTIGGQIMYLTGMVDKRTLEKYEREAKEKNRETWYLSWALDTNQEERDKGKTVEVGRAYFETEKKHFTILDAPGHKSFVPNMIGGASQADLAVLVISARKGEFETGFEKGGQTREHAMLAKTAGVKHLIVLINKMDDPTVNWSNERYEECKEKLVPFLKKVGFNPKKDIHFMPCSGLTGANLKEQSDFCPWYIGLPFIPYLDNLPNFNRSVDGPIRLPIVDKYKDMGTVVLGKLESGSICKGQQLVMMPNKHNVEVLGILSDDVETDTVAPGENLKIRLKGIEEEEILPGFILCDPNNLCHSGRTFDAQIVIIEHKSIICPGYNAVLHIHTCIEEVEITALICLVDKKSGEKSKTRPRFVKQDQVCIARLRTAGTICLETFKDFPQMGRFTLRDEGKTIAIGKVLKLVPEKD
T6 sequence (Q96SW2 whole entry): as the sequence (Q96SW2 whole entry) above
T6 sequence (Q16531 whole entry partner): as the sequence (Q16531 whole entry partner) above
T4 sequence (Q9UKT9 whole entry): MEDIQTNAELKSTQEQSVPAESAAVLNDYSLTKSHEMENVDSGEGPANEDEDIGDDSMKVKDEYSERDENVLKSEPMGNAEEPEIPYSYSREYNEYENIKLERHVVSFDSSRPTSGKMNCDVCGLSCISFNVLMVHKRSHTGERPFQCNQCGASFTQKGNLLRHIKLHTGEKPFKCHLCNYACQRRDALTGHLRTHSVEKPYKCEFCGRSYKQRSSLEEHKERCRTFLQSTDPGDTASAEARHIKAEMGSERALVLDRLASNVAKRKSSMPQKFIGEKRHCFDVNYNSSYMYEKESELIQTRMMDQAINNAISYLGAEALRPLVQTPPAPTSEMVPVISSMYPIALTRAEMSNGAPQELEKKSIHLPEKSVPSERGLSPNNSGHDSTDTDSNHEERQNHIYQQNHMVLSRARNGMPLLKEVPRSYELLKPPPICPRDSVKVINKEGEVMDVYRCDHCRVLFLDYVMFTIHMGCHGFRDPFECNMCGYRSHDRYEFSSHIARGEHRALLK
T4 sequence (Q96SW2 whole entry): as the sequence (Q96SW2 whole entry) above
T4 sequence (Q16531 whole entry partner): as the sequence (Q16531 whole entry partner) above
T1 sequence (Q9UKS7 whole entry): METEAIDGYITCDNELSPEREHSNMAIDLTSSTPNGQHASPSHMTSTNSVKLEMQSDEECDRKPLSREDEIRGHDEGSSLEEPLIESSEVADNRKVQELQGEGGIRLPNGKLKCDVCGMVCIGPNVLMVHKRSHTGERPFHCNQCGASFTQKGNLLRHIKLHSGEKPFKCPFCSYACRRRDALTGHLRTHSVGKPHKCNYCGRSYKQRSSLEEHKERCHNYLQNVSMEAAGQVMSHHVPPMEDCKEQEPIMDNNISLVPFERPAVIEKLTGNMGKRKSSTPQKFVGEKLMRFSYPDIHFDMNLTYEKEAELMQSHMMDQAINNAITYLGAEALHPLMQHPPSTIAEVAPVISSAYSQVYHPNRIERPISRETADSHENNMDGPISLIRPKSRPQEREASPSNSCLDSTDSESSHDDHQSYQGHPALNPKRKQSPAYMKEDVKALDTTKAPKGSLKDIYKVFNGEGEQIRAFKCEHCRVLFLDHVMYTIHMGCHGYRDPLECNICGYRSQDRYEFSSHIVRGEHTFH
T1 sequence (Q96SW2 whole entry): as the sequence (Q96SW2 whole entry) above
T1 sequence (Q16531 whole entry partner): as the sequence (Q16531 whole entry partner) above
T5 sequence (P48729 whole entry): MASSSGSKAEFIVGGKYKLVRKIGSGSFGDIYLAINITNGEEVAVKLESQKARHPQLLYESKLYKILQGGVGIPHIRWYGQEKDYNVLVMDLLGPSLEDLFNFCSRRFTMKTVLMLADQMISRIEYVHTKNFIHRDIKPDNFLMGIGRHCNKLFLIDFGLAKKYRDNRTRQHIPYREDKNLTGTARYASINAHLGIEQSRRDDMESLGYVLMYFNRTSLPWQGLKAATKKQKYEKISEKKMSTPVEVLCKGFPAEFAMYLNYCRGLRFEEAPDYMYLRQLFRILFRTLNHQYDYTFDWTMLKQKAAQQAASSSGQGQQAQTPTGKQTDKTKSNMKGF
T5 sequence (Q96SW2 whole entry): as the sequence (Q96SW2 whole entry) above
T5 sequence (Q16531 whole entry partner): as the sequence (Q16531 whole entry partner) above

SMILES | IKZF2 substrate protein remaining % (IKZF2) | WEE1 substrate protein remaining % (WEE1) | IKZF1 substrate protein remaining % (IKZF1) | IKZF3 substrate protein remaining % (IKZF3) | CK1α substrate protein remaining % (CK1α) | GSPT1 substrate protein remaining % (GSPT1)
O=C1CCN(N2C(=O)c3ccc(CN4CCC(c5noc6ccccc56)CC4)cc3C2=O)C(=O)N1 [GT-07522, 5-((4-(benzo[d]isoxazol-3-yl)piperidin-1-yl)methyl)-2-(2,4-dioxotetrahydropyrimidin-1(2H)-yl)isoindoline-1,3-dione] | A (0% ≤ substrate protein remaining % ≤80%) | A (0% ≤ substrate protein remaining % ≤80%) | A (0% ≤ substrate protein remaining % ≤80%) | B (80%< substrate protein remaining % ≤100%) | A (0% ≤ substrate protein remaining % ≤80%) | A (0% ≤ substrate protein remaining % ≤80%)
O=C1CCN(N2C(=O)c3ccc(CN4CCC(c5ccon5)CC4)cc3C2=O)C(=O)N1 [GT-07523, 2-(2,4-dioxotetrahydropyrimidin-1(2H)-yl)-5-((4-(isoxazol-3-yl)piperidin-1-yl)methyl)isoindoline-1,3-dione] | A (0% ≤ substrate protein remaining % ≤80%) | A (0% ≤ substrate protein remaining % ≤80%) | A (0% ≤ substrate protein remaining % ≤80%) | B (80%< substrate protein remaining % ≤100%) | A (0% ≤ substrate protein remaining % ≤80%) | A (0% ≤ substrate protein remaining % ≤80%)
O=C1CCN(N2C(=O)c3ccc(CN4CCN(c5noc6cc(F)ccc56)CC4)cc3C2=O)C(=O)N1 [GT-07524, 2-(2,4-dioxotetrahydropyrimidin-1(2H)-yl)-5-((4-(6-fluorobenzo[d]isoxazol-3-yl)piperazin-1-yl)methyl)isoindoline-1,3-dione] | A (0% ≤ substrate protein remaining % ≤80%) | A (0% ≤ substrate protein remaining % ≤80%) | A (0% ≤ substrate protein remaining % ≤80%) | B (80%< substrate protein remaining % ≤100%) | B (80%< substrate protein remaining % ≤100%) | A (0% ≤ substrate protein remaining % ≤80%)
O=C1CCN(N2C(=O)c3ccc(CN4CCN(c5noc6ccncc56)CC4)cc3C2=O)C(=O)N1 [GT-07525, 2-(2,4-dioxotetrahydropyrimidin-1(2H)-yl)-5-((4-(isoxazolo[4,5-c]pyridin-3-yl)piperazin-1-yl)methyl)isoindoline-1,3-dione] | B (80%< substrate protein remaining % ≤100%) | B (80%< substrate protein remaining % ≤100%) | B (80%< substrate protein remaining % ≤100%) | B (80%< substrate protein remaining % ≤100%) | A (0% ≤ substrate protein remaining % ≤80%) | A (0% ≤ substrate protein remaining % ≤80%)
O=C1CCN(N2C(=O)c3ccc(CN4CCN(c5nsc6cc(F)ccc56)CC4)cc3C2=O)C(=O)N1 [GT-07526, 2-(2,4-dioxotetrahydropyrimidin-1(2H)-yl)-5-((4-(6-fluorobenzo[d]isothiazol-3-yl)piperazin-1-yl)methyl)isoindoline-1,3-dione] | B (80%< substrate protein remaining % ≤100%) | B (80%< substrate protein remaining % ≤100%) | B (80%< substrate protein remaining % ≤100%) | B (80%< substrate protein remaining % ≤100%) | A (0% ≤ substrate protein remaining % ≤80%) | A (0% ≤ substrate protein remaining % ≤80%)
O=C1CCN(N2C(=O)c3ccc(CN4CCN(c5n[nH]c6cc(F)ccc56)CC4)cc3C2=O)C(=O)N1 [GT-07527, 2-(2,4-dioxotetrahydropyrimidin-1(2H)-yl)-5-((4-(6-fluoro-1H-indazol-3-yl)piperazin-1-yl)methyl)isoindoline-1,3-dione] | B (80%< substrate protein remaining % ≤100%) | B (80%< substrate protein remaining % ≤100%) | B (80%< substrate protein remaining % ≤100%) | B (80%< substrate protein remaining % ≤100%) | A (0% ≤ substrate protein remaining % ≤80%) | A (0% ≤ substrate protein remaining % ≤80%)
O=C1CCN(N2C(=O)c3ccc(CN4CCN(c5c[nH]c6ncccc56)CC4)cc3C2=O)C(=O)N1 [GT-07528, 5-((4-(1H-pyrrolo[2,3-b]pyridin-3-yl)piperazin-1-yl)methyl)-2-(2,4-dioxotetrahydropyrimidin-1(2H)-yl)isoindoline-1,3-dione] | B (80%< substrate protein remaining % ≤100%) | B (80%< substrate protein remaining % ≤100%) | B (80%< substrate protein remaining % ≤100%) | B (80%< substrate protein remaining % ≤100%) | A (0% ≤ substrate protein remaining % ≤80%) | A (0% ≤ substrate protein remaining % ≤80%)
O=C1CCN(N2C(=O)c3ccc(CN4CCC(n5cnc6cc(F)ccc65)CC4)cc3C2=O)C(=O)N1 [GT-07529, 2-(2,4-dioxotetrahydropyrimidin-1(2H)-yl)-5-((4-(5-fluoro-1H-benzo[d]imidazol-1-yl)piperidin-1-yl)methyl)isoindoline-1,3-dione] | B (80%< substrate protein remaining % ≤100%) | B (80%< substrate protein remaining % ≤100%) | B (80%< substrate protein remaining % ≤100%) | B (80%< substrate protein remaining % ≤100%) | A (0% ≤ substrate protein remaining % ≤80%) | A (0% ≤ substrate protein remaining % ≤80%)
O=C1CCN(N2C(=O)c3ccc(CN4CCC(c5n[nH]c6cc(F)ccc56)CC4)cc3C2=O)C(=O)N1 [GT-07530, 2-(2,4-dioxotetrahydropyrimidin-1(2H)-yl)-5-((4-(6-fluoro-1H-indazol-3-yl)piperidin-1-yl)methyl)isoindoline-1,3-dione] | B (80%< substrate protein remaining % ≤100%) | A (0% ≤ substrate protein remaining % ≤80%) | B (80%< substrate protein remaining % ≤100%) | B (80%< substrate protein remaining % ≤100%) | A (0% ≤ substrate protein remaining % ≤80%) | A (0% ≤ substrate protein remaining % ≤80%)
O=C1CCN(N2Cc3cc(CN4CCN(c5n[nH]c6cc(F)ccc56)CC4)ccc3C2=O)C(=O)N1 [GT-07545, 1-(5-((4-(6-fluoro-1H-indazol-3-yl)piperazin-1-yl)methyl)-1-oxoisoindolin-2-yl)dihydropyrimidine-2,4(1H,3H)-dione] | B (80%< substrate protein remaining % ≤100%) | A (0% ≤ substrate protein remaining % ≤80%) | A (0% ≤ substrate protein remaining % ≤80%) | B (80%< substrate protein remaining % ≤100%) | A (0% ≤ substrate protein remaining % ≤80%) | A (0% ≤ substrate protein remaining % ≤80%)
O=C1CCN(N2Cc3cc(CN4CC=C(c5c[nH]c6cc(F)ccc56)CC4)ccc3C2=O)C(=O)N1 [GT-07574, 1-(5-((4-(6-fluoro-1H-indol-3-yl)-3,6-dihydropyridin-1(2H)-yl)methyl)-1-oxoisoindolin-2-yl)dihydropyrimidine-2,4(1H,3H)-dione] | A (0% ≤ substrate protein remaining % ≤80%) | A (0% ≤ substrate protein remaining % ≤80%) | B (80%< substrate protein remaining % ≤100%) | B (80%< substrate protein remaining % ≤100%) | A (0% ≤ substrate protein remaining % ≤80%) | A (0% ≤ substrate protein remaining % ≤80%)
